Experimental data from BigSolDB 2.1.

C[C@@H](O)[C@H]1C(=O)N2C(C(=O)[O-])=C(SC3Cn4cnc[n+]4C3)[C@H](C)[C@H]12 (stereo partly drawn)
solubility (mole fraction)
Details	in DMF	in DMSO	in NMP	in acetone	in acetonitrile	in ethanol	in ethyl acetate	in isopropanol	in methanol	in n-propanol
283.15 K	5.8e-05	–	7.58e-05	1.77e-06	3.63e-05	1.49e-05	5.21e-05	6.66e-06	1.86e-05	1.17e-05
288.15 K	6.44e-05	–	8.14e-05	2.51e-06	4.07e-05	1.76e-05	5.73e-05	8.24e-06	2.19e-05	1.37e-05
293.15 K	7.11e-05	7.86e-05	8.79e-05	3.4e-06	4.61e-05	2.09e-05	6.48e-05	9.98e-06	2.59e-05	1.62e-05
298.15 K	7.8e-05	8.66e-05	9.66e-05	4.57e-06	5.17e-05	2.46e-05	7.16e-05	1.2e-05	3.07e-05	1.97e-05
303.15 K	8.72e-05	9.47e-05	0.000106	5.97e-06	5.82e-05	2.9e-05	7.97e-05	1.41e-05	3.57e-05	2.32e-05
308.15 K	9.65e-05	0.000104	0.000117	8.13e-06	6.67e-05	3.41e-05	8.9e-05	1.69e-05	4.18e-05	2.7e-05
313.15 K	0.000107	0.000116	0.000128	1.06e-05	7.46e-05	3.97e-05	9.93e-05	2e-05	4.9e-05	3.19e-05
318.15 K	0.000119	0.000129	0.000141	1.39e-05	8.5e-05	4.54e-05	0.000111	2.37e-05	5.63e-05	3.71e-05
323.15 K	0.000131	0.000142	0.000156	1.79e-05	9.56e-05	5.23e-05	0.000123	2.79e-05	6.61e-05	4.32e-05
